From ChEMBL document CHEMBL3991601, “The target landscape of clinical kinase drugs” (Science, 2017)
The source made the active and inactive calls.

Experiments:
[1] = molecular target: Dual specificity mitogen-activated protein kinase kinase 1 (Homo sapiens, UniProt Q02750)
[2] = molecular target: Ephrin type-A receptor 4 (Homo sapiens, UniProt P54764)
[3] = molecular target: Myosin light chain kinase, smooth muscle (Homo sapiens, UniProt Q15746)
[4] = molecular target: Bone morphogenetic protein receptor type-1A (Homo sapiens, UniProt P36894)
[5] = molecular target: Serine/threonine-protein kinase 16 (Homo sapiens, UniProt O75716)
[6] = molecular target: T1, ADP/ATP translocase 3 (Homo sapiens, UniProt P12236)
T1 sequence (P12236 whole entry): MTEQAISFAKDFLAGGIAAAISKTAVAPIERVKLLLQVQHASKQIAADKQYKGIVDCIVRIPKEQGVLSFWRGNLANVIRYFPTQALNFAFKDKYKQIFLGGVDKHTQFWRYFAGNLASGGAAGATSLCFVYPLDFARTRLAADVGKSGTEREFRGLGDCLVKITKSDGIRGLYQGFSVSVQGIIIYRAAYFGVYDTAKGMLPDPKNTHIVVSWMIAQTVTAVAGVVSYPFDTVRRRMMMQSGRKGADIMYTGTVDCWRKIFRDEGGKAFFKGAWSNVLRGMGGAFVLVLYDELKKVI

[7] = molecular target: Atypical kinase COQ8A, mitochondrial (Homo sapiens, UniProt Q8NI60)
[8] = molecular target: T2, Eukaryotic translation initiation factor 5B (Homo sapiens, UniProt O60841)
T2 sequence (O60841 whole entry): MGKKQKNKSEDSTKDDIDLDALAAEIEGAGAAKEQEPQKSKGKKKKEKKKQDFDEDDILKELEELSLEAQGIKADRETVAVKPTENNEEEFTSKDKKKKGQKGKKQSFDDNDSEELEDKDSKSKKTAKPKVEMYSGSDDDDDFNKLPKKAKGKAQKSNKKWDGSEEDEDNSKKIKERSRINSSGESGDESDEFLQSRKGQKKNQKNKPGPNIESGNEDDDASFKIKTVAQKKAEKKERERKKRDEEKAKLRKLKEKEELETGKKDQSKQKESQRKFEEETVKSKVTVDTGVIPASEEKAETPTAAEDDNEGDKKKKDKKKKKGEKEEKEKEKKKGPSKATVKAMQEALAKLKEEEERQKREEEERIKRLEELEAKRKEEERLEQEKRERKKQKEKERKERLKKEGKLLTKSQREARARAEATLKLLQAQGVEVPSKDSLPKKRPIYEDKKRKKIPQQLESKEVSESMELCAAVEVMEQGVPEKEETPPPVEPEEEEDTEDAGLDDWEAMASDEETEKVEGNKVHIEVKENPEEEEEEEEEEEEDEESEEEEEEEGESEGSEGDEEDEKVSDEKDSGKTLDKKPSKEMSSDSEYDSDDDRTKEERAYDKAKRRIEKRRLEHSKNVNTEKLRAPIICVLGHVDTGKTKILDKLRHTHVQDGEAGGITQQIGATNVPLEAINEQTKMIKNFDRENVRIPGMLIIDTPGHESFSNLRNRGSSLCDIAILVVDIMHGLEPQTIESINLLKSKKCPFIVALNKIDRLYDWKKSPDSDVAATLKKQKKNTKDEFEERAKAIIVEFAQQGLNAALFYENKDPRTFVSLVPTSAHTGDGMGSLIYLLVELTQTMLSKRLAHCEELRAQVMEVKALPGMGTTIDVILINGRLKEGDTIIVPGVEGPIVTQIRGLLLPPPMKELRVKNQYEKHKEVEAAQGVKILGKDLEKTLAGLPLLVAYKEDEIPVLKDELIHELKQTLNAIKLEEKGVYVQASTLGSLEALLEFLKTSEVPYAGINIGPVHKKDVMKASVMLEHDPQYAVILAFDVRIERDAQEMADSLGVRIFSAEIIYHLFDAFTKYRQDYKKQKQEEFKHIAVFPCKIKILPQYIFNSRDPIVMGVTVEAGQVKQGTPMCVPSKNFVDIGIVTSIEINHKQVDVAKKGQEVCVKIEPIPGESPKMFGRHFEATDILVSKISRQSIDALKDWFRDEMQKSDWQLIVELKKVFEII

[9] = molecular target: T3, Inhibitor of nuclear factor kappa-B kinase subunit epsilon (Homo sapiens, UniProt Q14164)
T3 sequence (Q14164 whole entry): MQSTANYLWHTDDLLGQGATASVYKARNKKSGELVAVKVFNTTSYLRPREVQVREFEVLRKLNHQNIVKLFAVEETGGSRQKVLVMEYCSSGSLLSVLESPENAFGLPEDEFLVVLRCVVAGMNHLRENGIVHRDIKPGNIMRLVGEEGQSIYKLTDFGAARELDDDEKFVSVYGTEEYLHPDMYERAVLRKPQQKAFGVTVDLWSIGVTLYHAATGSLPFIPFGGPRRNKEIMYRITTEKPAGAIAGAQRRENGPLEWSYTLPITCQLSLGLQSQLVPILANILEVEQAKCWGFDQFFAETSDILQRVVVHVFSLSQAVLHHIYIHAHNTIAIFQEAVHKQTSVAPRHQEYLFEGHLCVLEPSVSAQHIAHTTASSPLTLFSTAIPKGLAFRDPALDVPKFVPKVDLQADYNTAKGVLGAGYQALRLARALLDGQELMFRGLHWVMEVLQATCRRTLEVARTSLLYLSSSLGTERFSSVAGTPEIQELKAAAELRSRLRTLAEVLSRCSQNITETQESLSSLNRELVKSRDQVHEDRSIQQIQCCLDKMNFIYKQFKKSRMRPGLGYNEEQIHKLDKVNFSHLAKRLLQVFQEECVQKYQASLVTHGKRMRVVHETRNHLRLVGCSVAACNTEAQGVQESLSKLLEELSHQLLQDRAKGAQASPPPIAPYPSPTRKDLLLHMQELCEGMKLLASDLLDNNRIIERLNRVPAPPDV

[10] = molecular target: Ribosomal protein S6 kinase alpha-6 (Homo sapiens, UniProt Q9UK32)
[11] = molecular target: Adenosine kinase (Homo sapiens, UniProt P55263)
[12] = molecular target: Casein kinase I isoform gamma-1 (Homo sapiens, UniProt Q9HCP0)
[13] = molecular target: Serine/threonine-protein kinase pim-1 (Homo sapiens, UniProt P11309)
Also: in the data inactive means no Kd found up to 30 µM.

Sequence of Adenosine kinase (P55263 whole entry, canonical isoform): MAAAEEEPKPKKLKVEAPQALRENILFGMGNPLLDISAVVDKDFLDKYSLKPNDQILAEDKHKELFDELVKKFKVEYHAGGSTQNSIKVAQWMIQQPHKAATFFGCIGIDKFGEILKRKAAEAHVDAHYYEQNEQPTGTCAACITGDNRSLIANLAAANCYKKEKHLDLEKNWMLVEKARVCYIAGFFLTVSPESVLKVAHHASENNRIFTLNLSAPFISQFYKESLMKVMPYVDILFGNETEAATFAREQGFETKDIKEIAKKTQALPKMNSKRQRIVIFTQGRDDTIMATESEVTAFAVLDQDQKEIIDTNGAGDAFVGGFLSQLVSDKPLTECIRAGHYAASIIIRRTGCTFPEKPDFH
Sequence of Casein kinase I isoform gamma-1 (Q9HCP0 whole entry, canonical isoform): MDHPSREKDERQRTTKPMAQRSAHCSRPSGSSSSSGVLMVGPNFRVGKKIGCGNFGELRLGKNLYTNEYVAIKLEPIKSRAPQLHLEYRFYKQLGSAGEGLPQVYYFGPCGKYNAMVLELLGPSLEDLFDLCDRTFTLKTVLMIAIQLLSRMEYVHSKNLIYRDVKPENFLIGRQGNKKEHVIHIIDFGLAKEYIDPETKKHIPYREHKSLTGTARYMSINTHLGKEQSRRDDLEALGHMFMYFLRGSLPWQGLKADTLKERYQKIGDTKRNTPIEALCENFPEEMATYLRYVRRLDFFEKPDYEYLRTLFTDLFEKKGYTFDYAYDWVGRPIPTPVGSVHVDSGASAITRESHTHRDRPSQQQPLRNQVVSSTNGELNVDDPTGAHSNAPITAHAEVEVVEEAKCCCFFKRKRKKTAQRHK
Sequence of Serine/threonine-protein kinase 16 (O75716 whole entry): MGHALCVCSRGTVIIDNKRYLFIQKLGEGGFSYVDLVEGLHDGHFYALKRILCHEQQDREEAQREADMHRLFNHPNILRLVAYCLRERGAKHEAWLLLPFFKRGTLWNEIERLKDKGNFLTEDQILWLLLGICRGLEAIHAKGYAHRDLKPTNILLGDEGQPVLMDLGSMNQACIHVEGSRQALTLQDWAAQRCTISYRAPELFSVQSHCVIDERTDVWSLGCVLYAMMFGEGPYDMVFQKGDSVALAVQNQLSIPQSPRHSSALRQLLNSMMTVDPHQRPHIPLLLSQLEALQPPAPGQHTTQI
Sequence of Atypical kinase COQ8A, mitochondrial (Q8NI60 whole entry): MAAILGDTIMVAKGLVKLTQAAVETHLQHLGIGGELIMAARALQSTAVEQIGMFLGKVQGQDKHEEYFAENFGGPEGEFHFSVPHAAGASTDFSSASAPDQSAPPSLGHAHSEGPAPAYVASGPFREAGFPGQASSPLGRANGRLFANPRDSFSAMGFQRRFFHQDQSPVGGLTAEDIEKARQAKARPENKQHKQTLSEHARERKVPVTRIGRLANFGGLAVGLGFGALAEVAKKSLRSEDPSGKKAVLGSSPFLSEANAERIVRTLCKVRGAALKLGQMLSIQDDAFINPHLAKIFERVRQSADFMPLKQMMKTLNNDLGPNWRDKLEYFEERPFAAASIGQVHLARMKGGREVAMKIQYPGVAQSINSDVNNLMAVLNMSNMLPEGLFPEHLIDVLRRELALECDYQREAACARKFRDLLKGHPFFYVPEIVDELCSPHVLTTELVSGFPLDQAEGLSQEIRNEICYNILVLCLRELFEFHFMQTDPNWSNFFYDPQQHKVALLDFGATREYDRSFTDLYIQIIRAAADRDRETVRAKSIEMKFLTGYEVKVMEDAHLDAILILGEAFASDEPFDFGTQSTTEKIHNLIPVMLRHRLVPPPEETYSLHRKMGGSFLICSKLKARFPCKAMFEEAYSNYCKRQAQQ
Sequence of Dual specificity mitogen-activated protein kinase kinase 1 (Q02750 whole entry): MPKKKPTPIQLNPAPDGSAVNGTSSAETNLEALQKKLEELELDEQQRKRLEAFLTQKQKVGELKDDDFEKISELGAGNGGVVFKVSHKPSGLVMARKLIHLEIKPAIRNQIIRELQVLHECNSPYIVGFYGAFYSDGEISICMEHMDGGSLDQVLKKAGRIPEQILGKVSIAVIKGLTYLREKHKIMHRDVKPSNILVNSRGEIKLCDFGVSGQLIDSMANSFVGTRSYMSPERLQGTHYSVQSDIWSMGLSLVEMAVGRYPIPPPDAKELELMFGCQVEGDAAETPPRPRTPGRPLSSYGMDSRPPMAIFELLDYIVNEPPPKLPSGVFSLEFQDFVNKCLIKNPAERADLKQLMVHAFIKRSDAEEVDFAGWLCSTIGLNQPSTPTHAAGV
Sequence of Ephrin type-A receptor 4 (P54764 whole entry): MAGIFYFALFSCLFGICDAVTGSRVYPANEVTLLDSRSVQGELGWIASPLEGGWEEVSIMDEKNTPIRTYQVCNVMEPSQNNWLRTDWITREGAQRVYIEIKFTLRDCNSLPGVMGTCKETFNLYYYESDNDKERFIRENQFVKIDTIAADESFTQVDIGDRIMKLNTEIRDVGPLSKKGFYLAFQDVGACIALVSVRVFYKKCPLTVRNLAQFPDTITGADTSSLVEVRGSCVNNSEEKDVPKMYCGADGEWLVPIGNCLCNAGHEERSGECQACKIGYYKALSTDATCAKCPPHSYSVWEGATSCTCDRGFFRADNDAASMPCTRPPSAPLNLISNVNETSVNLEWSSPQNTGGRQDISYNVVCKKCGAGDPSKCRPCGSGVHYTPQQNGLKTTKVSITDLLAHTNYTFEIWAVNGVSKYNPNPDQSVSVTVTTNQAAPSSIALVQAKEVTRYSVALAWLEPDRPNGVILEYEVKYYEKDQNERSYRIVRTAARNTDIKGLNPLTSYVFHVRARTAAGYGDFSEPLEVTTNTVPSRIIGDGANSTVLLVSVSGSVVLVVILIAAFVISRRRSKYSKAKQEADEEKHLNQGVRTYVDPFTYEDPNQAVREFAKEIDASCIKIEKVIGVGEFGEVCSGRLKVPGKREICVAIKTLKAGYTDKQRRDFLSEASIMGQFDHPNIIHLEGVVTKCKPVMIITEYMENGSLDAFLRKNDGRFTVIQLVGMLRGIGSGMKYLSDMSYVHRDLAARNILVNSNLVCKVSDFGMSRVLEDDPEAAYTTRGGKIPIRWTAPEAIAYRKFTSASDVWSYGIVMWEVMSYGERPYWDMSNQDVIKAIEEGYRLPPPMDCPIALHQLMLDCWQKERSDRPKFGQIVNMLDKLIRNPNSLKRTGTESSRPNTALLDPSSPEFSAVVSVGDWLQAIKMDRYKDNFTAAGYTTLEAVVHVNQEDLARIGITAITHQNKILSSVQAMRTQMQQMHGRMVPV
Sequence of Myosin light chain kinase, smooth muscle (Q15746 whole entry): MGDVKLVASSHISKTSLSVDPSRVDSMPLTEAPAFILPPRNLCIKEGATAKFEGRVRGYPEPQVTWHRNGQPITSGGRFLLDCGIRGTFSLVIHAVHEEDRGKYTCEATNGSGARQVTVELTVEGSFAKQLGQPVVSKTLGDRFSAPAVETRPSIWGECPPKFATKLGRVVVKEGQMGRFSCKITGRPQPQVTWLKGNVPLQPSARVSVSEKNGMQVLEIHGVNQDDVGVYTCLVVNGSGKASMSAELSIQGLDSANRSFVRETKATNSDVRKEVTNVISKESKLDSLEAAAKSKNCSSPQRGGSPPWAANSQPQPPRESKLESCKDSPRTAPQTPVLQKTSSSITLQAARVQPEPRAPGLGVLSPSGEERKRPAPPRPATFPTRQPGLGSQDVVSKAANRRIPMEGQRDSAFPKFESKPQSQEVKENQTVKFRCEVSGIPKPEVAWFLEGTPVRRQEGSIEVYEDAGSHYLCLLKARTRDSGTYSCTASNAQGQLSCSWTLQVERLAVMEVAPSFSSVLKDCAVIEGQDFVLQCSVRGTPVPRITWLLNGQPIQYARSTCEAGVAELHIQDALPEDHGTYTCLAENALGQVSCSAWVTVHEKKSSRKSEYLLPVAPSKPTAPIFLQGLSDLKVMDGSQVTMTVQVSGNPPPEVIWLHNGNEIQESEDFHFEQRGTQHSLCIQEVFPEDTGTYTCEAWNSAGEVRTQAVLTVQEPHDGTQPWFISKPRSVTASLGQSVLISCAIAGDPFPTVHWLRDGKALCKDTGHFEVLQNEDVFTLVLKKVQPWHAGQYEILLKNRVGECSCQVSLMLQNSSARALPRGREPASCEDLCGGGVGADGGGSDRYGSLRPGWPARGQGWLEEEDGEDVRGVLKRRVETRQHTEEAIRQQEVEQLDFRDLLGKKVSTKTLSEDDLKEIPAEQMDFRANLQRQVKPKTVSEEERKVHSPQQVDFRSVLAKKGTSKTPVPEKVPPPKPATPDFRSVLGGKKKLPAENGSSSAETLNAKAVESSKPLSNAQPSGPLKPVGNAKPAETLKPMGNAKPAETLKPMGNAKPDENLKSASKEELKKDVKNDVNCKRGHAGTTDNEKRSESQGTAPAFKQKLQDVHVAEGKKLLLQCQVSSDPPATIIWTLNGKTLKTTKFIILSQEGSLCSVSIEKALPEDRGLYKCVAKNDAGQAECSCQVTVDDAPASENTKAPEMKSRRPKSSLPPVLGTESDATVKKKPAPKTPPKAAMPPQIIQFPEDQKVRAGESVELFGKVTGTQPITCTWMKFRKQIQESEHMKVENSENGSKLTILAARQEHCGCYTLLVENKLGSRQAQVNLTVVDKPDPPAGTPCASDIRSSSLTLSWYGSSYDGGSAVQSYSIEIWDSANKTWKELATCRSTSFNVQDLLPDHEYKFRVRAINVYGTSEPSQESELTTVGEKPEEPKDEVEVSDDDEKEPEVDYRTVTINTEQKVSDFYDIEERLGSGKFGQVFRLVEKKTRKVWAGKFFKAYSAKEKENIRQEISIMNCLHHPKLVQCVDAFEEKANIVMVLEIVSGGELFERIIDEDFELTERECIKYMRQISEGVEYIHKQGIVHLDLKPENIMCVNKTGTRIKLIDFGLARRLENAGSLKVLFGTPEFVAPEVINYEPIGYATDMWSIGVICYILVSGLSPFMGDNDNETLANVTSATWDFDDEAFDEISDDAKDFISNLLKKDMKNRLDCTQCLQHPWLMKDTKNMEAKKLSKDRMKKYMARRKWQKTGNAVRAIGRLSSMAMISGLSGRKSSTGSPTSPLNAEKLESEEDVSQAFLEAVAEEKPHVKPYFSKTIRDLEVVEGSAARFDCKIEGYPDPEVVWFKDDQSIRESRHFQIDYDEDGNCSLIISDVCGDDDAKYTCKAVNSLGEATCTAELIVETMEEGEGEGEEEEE

CC(C)(C)c1nc(-c2cccc(NS(=O)(=O)c3c(F)cccc3F)c2F)c(-c2ccnc(N)n2)s1 [DABRAFENIB]
Kd [1]: > 30 µM (inactive) | Kd [2]: > 30 µM (inactive) | Kd [3]: > 30 µM (inactive) | Kd [4]: > 30 µM (inactive) | Kd [5]: > 30 µM (inactive) | Kd [6]: > 30 µM (inactive) | Kd [7]: > 30 µM (inactive) | Kd [8]: > 30 µM (inactive) | Kd [9]: > 30 µM (inactive) | Kd [10]: > 30 µM (inactive) | Kd [11]: > 30 µM (inactive)

COc1cc(Nc2ncc3c(n2)-c2ccc(Cl)cc2C(c2c(F)cccc2OC)=NC3)ccc1C(=O)O [ALISERTIB]
Kd [3]: > 30 µM (inactive) | Kd [4]: > 30 µM (inactive) | Kd [5]: > 30 µM (inactive) | Kd [6]: > 30 µM (inactive) | Kd [7]: > 30 µM (inactive) | Kd [8]: > 30 µM (inactive) | Kd [10]: > 30 µM (inactive) | Kd [11]: > 30 µM (inactive)

O=C(Nc1cc(C(F)(F)F)cc(C(F)(F)F)c1)c1cc(Cl)ccc1O [IMD-0354]
Kd [12]: > 30 µM (inactive) | Kd [1]: > 30 µM (inactive) | Kd [2]: > 30 µM (inactive) | Kd [3]: 3.22 µM | Kd [4]: > 30 µM (inactive) | Kd [5]: > 30 µM (inactive) | Kd [6]: > 30 µM (inactive) | Kd [7]: > 30 µM (inactive) | Kd [8]: > 30 µM (inactive) | Kd [9]: > 30 µM (inactive) | Kd [10]: > 30 µM (inactive) | Kd [11]: > 30 µM (inactive)

N#CC[C@H](C1CCCC1)n1cc(-c2ncnc3[nH]ccc23)cn1 [RUXOLITINIB]
Kd [6]: > 30 µM (inactive) | Kd [8]: > 30 µM (inactive) | Kd [11]: > 30 µM (inactive)

COc1ncc(-c2ccc3nccc(-c4ccnnc4)c3c2)cc1NS(=O)(=O)c1ccc(F)cc1F [OMIPALISIB]
Kd [12]: > 30 µM (inactive) | Kd [1]: > 30 µM (inactive) | Kd [2]: > 30 µM (inactive) | Kd [3]: > 30 µM (inactive) | Kd [4]: > 30 µM (inactive) | Kd [5]: > 30 µM (inactive) | Kd [6]: > 30 µM (inactive) | Kd [7]: > 30 µM (inactive) | Kd [8]: > 30 µM (inactive) | Kd [9]: > 30 µM (inactive) | Kd [10]: > 30 µM (inactive) | Kd [11]: > 30 µM (inactive)

Cc1[nH]c(/C=C2\C(=O)Nc3ccccc32)c(C)c1CCC(=O)O [ORANTINIB]
Kd [1]: 3.43 µM (active) | Kd [2]: > 30 µM (inactive) | Kd [3]: > 30 µM (inactive) | Kd [4]: > 30 µM (inactive) | Kd [6]: > 30 µM (inactive) | Kd [7]: > 30 µM (inactive) | Kd [8]: > 30 µM (inactive) | Kd [10]: > 30 µM (inactive) | Kd [11]: > 30 µM (inactive)

CNC(=O)c1ccccc1Sc1ccc2c(/C=C/c3ccccn3)n[nH]c2c1 [AXITINIB]
Kd [6]: > 30 µM (inactive) | Kd [8]: > 30 µM (inactive) | Kd [11]: > 30 µM (inactive)

C[C@@H](Oc1cc(-n2cnc3ccc(CN4CCN(C)CC4)cc32)sc1C(N)=O)c1ccccc1C(F)(F)F [GSK-461364]
Kd [6]: > 30 µM (inactive) | Kd [8]: > 30 µM (inactive) | Kd [11]: 2.51 µM (active)

CN1CCN(CCOc2cc(OC3CCOCC3)c3c(Nc4c(Cl)ccc5c4OCO5)ncnc3c2)CC1 [SARACATINIB]
Kd [12]: > 30 µM (inactive) | Kd [1]: > 30 µM (inactive) | Kd [2]: 0.917 µM (active) | Kd [3]: > 30 µM (inactive) | Kd [4]: 0.06 µM (active) | Kd [5]: > 30 µM (inactive) | Kd [6]: > 30 µM (inactive) | Kd [13]: > 30 µM (inactive) | Kd [7]: 0.275 µM (active) | Kd [9]: > 30 µM (inactive) | Kd [10]: > 30 µM (inactive) | Kd [11]: > 30 µM (inactive)

COc1cc2c(Nc3ccc(Cl)c(Cl)c3F)ncnc2cc1OC[C@@H]1C[C@@H]2CN(C)C[C@@H]2C1 [TESEVATINIB]
Kd [12]: > 30 µM (inactive) | Kd [1]: > 30 µM (inactive) | Kd [2]: 0.44 µM (active) | Kd [3]: > 30 µM (inactive) | Kd [4]: > 30 µM (inactive) | Kd [5]: > 30 µM (inactive) | Kd [6]: > 30 µM (inactive) | Kd [13]: > 30 µM (inactive) | Kd [7]: > 30 µM (inactive) | Kd [9]: > 30 µM (inactive) | Kd [10]: > 30 µM (inactive) | Kd [11]: > 30 µM (inactive)

CCOc1cc2ncc(C#N)c(Nc3ccc(F)c(Cl)c3)c2cc1NC(=O)/C=C/CN(C)C [PELITINIB]
Kd [12]: > 30 µM (inactive) | Kd [1]: 8.77 µM (active) | Kd [2]: > 30 µM (inactive) | Kd [3]: > 30 µM (inactive) | Kd [4]: > 30 µM (inactive) | Kd [5]: > 30 µM (inactive) | Kd [6]: > 30 µM (inactive) | Kd [13]: > 30 µM (inactive) | Kd [7]: > 30 µM (inactive) | Kd [9]: > 30 µM (inactive) | Kd [10]: > 30 µM (inactive) | Kd [11]: > 30 µM (inactive)

C[C@@H](NC(=O)c1ncnc(N)c1Cl)c1ncc(C(=O)Nc2cc(C(F)(F)F)c(Cl)cn2)s1 [TOVORAFENIB]
Kd [12]: > 30 µM (inactive) | Kd [1]: > 30 µM (inactive) | Kd [2]: > 30 µM (inactive) | Kd [3]: 4.41 µM | Kd [4]: > 30 µM (inactive) | Kd [5]: > 30 µM (inactive) | Kd [6]: > 30 µM (inactive) | Kd [13]: > 30 µM (inactive) | Kd [7]: > 30 µM (inactive) | Kd [9]: > 30 µM (inactive) | Kd [10]: > 30 µM (inactive) | Kd [11]: > 30 µM (inactive)

NC(=O)Nc1cc(-c2cccc(F)c2)sc1C(=O)N[C@H]1CCCNC1 [AZD-7762]
Kd [12]: > 30 µM (inactive) | Kd [1]: 2.04 µM (active) | Kd [2]: > 30 µM (inactive) | Kd [3]: > 30 µM (inactive) | Kd [4]: > 30 µM (inactive) | Kd [5]: > 30 µM (inactive) | Kd [6]: > 30 µM (inactive) | Kd [13]: > 30 µM (inactive) | Kd [7]: > 30 µM (inactive) | Kd [9]: > 30 µM (inactive) | Kd [10]: 1.51 µM (active) | Kd [11]: > 30 µM (inactive)

O=C(NOCCO)c1cc(CN2OCCCC2=O)c(F)c(F)c1Nc1ccc(I)cc1F [RO-4987655]
Kd [6]: > 30 µM (inactive) | Kd [8]: > 30 µM (inactive)

NC(=O)c1c(OCc2c(F)cc(Br)cc2F)nsc1NC(=O)NCCCCN1CCCC1 [OSI-632]
Kd [2]: > 30 µM (inactive) | Kd [3]: > 30 µM (inactive) | Kd [5]: > 30 µM (inactive) | Kd [6]: > 30 µM (inactive) | Kd [7]: 3.05 µM | Kd [8]: > 30 µM (inactive) | Kd [10]: > 30 µM (inactive) | Kd [11]: > 30 µM (inactive)

FC(F)(F)c1ccc(/C=C/c2nc(COc3ccc(CCCCn4ccnn4)cc3)co2)cc1 [MUBRITINIB]
Kd [12]: > 30 µM (inactive) | Kd [1]: > 30 µM (inactive) | Kd [2]: > 30 µM (inactive) | Kd [3]: > 30 µM (inactive) | Kd [4]: > 30 µM (inactive) | Kd [5]: > 30 µM (inactive) | Kd [6]: > 30 µM (inactive) | Kd [13]: > 30 µM (inactive) | Kd [7]: > 30 µM (inactive) | Kd [9]: > 30 µM (inactive) | Kd [10]: > 30 µM (inactive) | Kd [11]: > 30 µM (inactive)
